Legend:
22Rv1 orthotopic tumors = test: OTL78 imaging of orthotopic prostate tumors, AMI image system; format: in vivo, SCID mice; conditions: 10 nmol, 2 h
Procedure: For orthotopic tumors, 2×10^5 22Rv1 cells/mouse in 10% high concentrated (HC) matrigel with RPMI1640 medium were surgically implanted in the prostate of seven-week-old male SCID mice. Briefly, seven-week-old male SCID mice were given 1-5% isoflurane for anesthesia and subcutaneous injection of 5 mg/kg meloxicam preoperatively for analgesia. The mice were placed dorsal side up and washed above the prostate with a chlorhexidine scrub to ensure a sterile area for incision. After an insertion was made using scalpel through the skin, the peritoneal lining was lifted to make a small incision using a scissor and widened using forceps. Dorsal lobes were exteriorized and gently stabilized with a wet (PBS) cotton swab. 22Rv1 cells (in 10 μL of 10% HC-matrigel) were injected the prostate using a 28-gage needle. After placing the prostate back into the peritoneum, the abdominal wall was sutured, the body wall was closed using 3-0 or 4-0 vicryl and the skin was closed using staples. Animals were monitored until use them for the studies. After one month, the animals were administered with OTL78 (10 nmol in 100 μL saline per mouse), euthanized after 2 h by CO2 asphyxiation, and imaged using AMI image system.

PC3 tumor xenografts = test: OTL78 whole body imaging and tissue biodistribution, subcutaneous tumor; format: in vivo, mice; conditions: 10 nmol, 2 h
Procedure: (§3) Whole body Imaging & Tissue biodistribution: Seven-week-old male nu/nu mice were inoculated subcutaneously with 5.0×106 22Rv1, LNCaP, PC3 or A549 cells/mouse in 50% high concentrated matrigel with RPMI1640 medium on the shoulder. Growth of the tumors was measured in perpendicular directions every 2 days using a caliper (body weights were monitored on the same schedule), and the volumes of the tumors were calculated as 0.5×L×W2 (L=longest axis and W=axis perpendicular to L in millimeters). Once tumors reached approximately 300-400 mm3 in volume, animals (3-5 mice/group) were intravenously injected with appropriate dose of OTL78 in saline.
(§4) For whole body imaging and biodistribution studies, animals were euthanized after 2 h of administration of OTL78 by CO2 asphyxiation. For time dependent studies, animals were imaged under anesthesia using isoflurane. Imaging experiments were then performed using IVIS or AMI image systems. Following whole body imaging, animals were dissected and selected tissues were analyzed for fluorescence activity using IVIS or AMI image system and ROI of the tissues were calculated using Living Image 4.0 software or AMIView Image Analysis Software.

PSMA-negative PC3 cells = test: OTL78 binding to PSMA-negative cells, cell bound fluorescence by fluorometer; set-up: species or system human; conditions: 30 min at 4° C.
Procedure: (§1) For OTL78 binding affinity, 22Rv1 or PC3 cells were seeded into a T75 flask and allowed to form a monolayer over 48 h. After trypsin digestion, cells were transferred into centrifuge tubes (1×10^6 cells/tube) and centrifuged. The medium was replaced with fresh medium containing increasing concentration of OTL78 and incubated for 30 min at 4° C. After rinsing with fresh medium (2×1.0 mL) and saline (1×1.0 mL), cells were lysed with 1% SDS with in saline (1.0 mL) and cell bound fluorescence was analyzed using a fluorometer (Cary Eclipse, Agilent Technologies). The binding affinity (Kd) was calculated using a plot of percent cell bound fluorescence versus concentration using GraphPad Prism 6.

PSMA on 22Rv1 cells [1] = biological target: T1, PSMA on 22Rv1 cells (Homo sapiens, UniProt Q04609); test: OTL78 binding affinity (Kd), cell bound fluorescence by fluorometer; conditions: 30 min at 4° C.
T1 construct: host or cells: 22Rv1 human prostate cancer cells
T1 sequence (Q04609 whole entry): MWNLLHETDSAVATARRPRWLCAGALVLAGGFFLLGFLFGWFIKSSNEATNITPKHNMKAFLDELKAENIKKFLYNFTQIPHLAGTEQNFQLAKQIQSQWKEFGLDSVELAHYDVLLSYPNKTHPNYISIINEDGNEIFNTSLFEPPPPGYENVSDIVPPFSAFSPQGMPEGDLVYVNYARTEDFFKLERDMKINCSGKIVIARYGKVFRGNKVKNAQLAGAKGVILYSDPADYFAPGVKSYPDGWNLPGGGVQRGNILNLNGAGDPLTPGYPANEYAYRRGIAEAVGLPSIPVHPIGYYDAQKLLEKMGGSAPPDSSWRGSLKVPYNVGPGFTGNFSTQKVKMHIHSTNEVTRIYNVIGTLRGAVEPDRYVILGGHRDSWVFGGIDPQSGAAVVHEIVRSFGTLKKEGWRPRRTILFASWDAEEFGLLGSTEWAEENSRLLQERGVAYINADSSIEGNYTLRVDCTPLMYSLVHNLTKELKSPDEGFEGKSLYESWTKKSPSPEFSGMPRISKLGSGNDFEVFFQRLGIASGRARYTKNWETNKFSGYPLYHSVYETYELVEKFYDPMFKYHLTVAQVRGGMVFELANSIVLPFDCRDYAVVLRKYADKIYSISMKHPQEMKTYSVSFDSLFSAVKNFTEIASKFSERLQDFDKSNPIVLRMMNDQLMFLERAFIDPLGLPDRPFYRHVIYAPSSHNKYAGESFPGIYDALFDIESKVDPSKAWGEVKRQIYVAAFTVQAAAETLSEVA
Procedure: as §1

22Rv1 cells = test: Binding and internalization of OTL78 by epifluorescence microscopy; format: cell-based, human; conditions: 100 nM, 1 h
Procedure: (§2) Confocal Microscopy: 22Rv1, LNCaP, or PC3 cells (50,000 cells/well in 1 mL) were seeded into poly-D-lysine microwell Petri dishes and allowed cells to form monolayers over 12 h. Spent medium was replaced with fresh medium containing OTL78 (100 nM) and cells were incubated for 1 h at 37° C. or 4° C. After rinsing with fresh medium (2×1.0 mL) and saline (lx 1.0 mL), fluorescence images were acquired using an epi-microscopy.

LNCaP cells = test: as above; format: cell-based, human; conditions: 100 nM, 1 h
Procedure: as §2

PC3 cells = test: as above; format: cell-based, human; conditions: 100 nM, 1 h
Procedure: as §2

[2] = Safety study of OTL78 (body weight, histopathology, clinical pathology)
Procedure: Safety Study: Seven-week-old healthy male Balb/c (5 mice/group) were administered with 6 μmol of freshly prepared OTL78 or saline dissolved in 100 μL of saline via tail vein injection on day zero. Body weights and clinical observations were monitored prior to dosing and daily thereafter from day zero to 14.
For immunohistopathology (IHC) studies, the animals were euthanized by CO2 asphyxiation on the day 14 and selected tissues (brain, heart, lung, liver, spleen, kidney, stomach, small intestine, large intestine, muscle, and skin) were collected into vials containing 4% formalin. Formalin fixed tissues were sectioned into 10 μm thick sections and mounted onto Superfrost Plus™ slides (Fisher Scientific, Pittsburgh Pa.). After staining the slides with H&E, IHC analysis of the tissues was conducted to determine to the toxicity of OTL78.
For clinical pathology studies, the animals were euthanized by CO2 asphyxiation on the day 14 and blood was collected to heparin by cardiac punch and blood work analysis was conducted at Purdue clinical pathology lab.

PSMA on 22Rv1 cells [3] = biological target: T1, PSMA on 22Rv1 cells; test: OTL78 relative affinity (IC50) by competition with DUPA-FITC; format: binding; conditions: 100 nM DUPA-FITC, 30 min at 4° C., flow cytometer; read-out: IC50 competing with DUPA-FITC
Procedure: In vitro binding: For OTL78 relative affinity (IC50), 22Rv1 or PC3 cells were plated into a T75 flask and allowed to form a monolayer over 48 h. After trypsin digestion, released cells were transferred into centrifuge tubes (1×10^6 cells/tube) and centrifuged. Spent medium in each tube was replaced with 100 nM DUPA-FITC in the presence of increasing concentration (0.001 nM-10 μM) of OTL78 in fresh medium (0.5 mL). After incubating for 30 min at 4° C., cells were rinsed with culture medium (2×1.0 mL) and saline (1×1.0 mL) to remove any unbound DUPA-FITC. Cells were then re-suspended in saline (0.5 mL) and cell bound fluorescence was quantified using a flow cytometer. The relative affinities were calculated using a plot of percent cell bound fluorescence versus the log concentration of OTL78 using GraphPad Prism 6.

basophils = test: Basophil activation test (Flow CAST) in human blood samples; format: cell-based
Procedure: Tolerability Studies: The blood samples were collected into hirudin tubes and used within an hour of collection. For each donor, 4 different tubes were prepared for allergen, positive controls, and negative control. Samples were analyzed using Flow CAST® high sensitivity Basophil Activation Test (BAT). Briefly, stimulation buffer (100 μL, background) or anti-FcεER antibody (100 μL) or fMLP (100 μL) or OTL78 (75 μM in 100 μL of saline) was added to tubes containing stimulation buffer (200 μL). 100 μL of blood was added to each tube and mixed gently. After adding staining reagent (40 μL) containing anti-CD63-CD203c-PE-DY647 and anti-CCR3-PE, each tube was mixed gently and incubated for 15 minutes at 37° C. Lysing reagent (2 mL) was added to each tube, mixed gently, incubated for 5-10 minutes at room temperature, and centrifuged for 5 minutes at 500×g. The supernatant was discarded and the cells were re-suspended in wash buffer (900 μL) and analyzed using flow cytometry. CD63-CD203c-PE-DY647+/CCR3-PE+ cell population considered as the activated basophils.

LNCaP tumor xenografts = test: OTL78 whole body imaging and tissue biodistribution, subcutaneous tumor; format: in vivo, mice; conditions: 10 nmol, 2 h
Procedure: as §3, §4

[4] = Excitation and emission spectra by fluorometer; format: physicochemical; conditions: same concentration, 1 μM in 1 mL of PBS
Procedure: FIG. 38B—Excitation (Ex) & emission (Em) spectra of OTL78 (1 μM) and S0456 (1 μM) in 1 mL of PBS obtained using fluorometer.
Results and Conclusions: In an effort to improve limitations in current clinical practice of radical prostatectomy and tumor-specific imaging agents that are in the preclinical stages, OTL78 was assembled using: (i) a high affinity PSMA-targeting ligand (coined DUPA), (ii) a rationally designed 14 atoms long polyethylene glycol-dipeptide linker, and (iii) an inexpensive NIR dye ([…]) named S0456 (see FIG. 38A for the chemical structure). The dipeptide consisting of phenylalanine-tyrosine was designed to fit to the contours and chemistry of the tunnel accessing the binding pocket of the PSMA protein.

[5] = 0.3-120 nmol/mouse tested, 2 hour time point, IVIS

Procedure for 22Rv1 tumor xenografts: as §3, §4

## CC1(C)C(/C=C/C2=C(Oc3ccc(C[C@H](NC(=O)[C@H](Cc4ccccc4)NC(=O)CCOCCOCCNC(=O)CC[C@H](NC(=O)N[C@@H](CCC(=O)O)C(=O)O)C(=O)O)C(=O)O)cc3)C(=C/C=C3/N(CCCCS(=O)(=O)O)c4ccc(S(=O)(=O)O)cc4C3(C)C)/CCC2)=[N+](CCCCS(=O)(=O)[O-])c2ccc(S(=O)(=O)O)cc21 [OTL78]
22Rv1 orthotopic tumors
  accumulation in orthotopic prostate tumors: mainly accumulated in prostate tumors with no fluorescence observed in other tissues except kidneys
22Rv1 orthotopic tumors; in the presence of primary tumor
  detection of local regional metastasis in seminal vesicles: able to detect
PC3 tumor xenografts
  fluorescence intensity of PC3 tumors compared to 22Rv1 tumors: ~6 folds less
PSMA-negative PC3 cells
  binding to PSMA-negative PC3 cells: did not bind
PSMA on 22Rv1 cells [1]
  Kd: 4.7 nM
22Rv1 cells
  labelling of 22Rv1 cells: able to efficiently label
LNCaP cells
  labelling of LNCaP cells: able to efficiently label
PC3 cells
  labelling of PC3 cells: not PC3 cells
[2]; 6 μmol/mouse (600× of normal dose), day zero to 14
  body weight change over the course of the study: < 5 % increase
[2]; 6 μmol/mouse, day 14
  clinical pathology analysis on blood samples: No noticeable toxicities
  pathological changes in H&E staining of tissues: no obvious pathological changers
PSMA on 22Rv1 cells [3]
  IC50: 7 nM
22Rv1 tumor xenografts; 10 nmol, 2 h
  accumulation in 22Rv1 tumors: accumulated predominantly
22Rv1 tumor xenografts; [5]
  dose of best TBR: 3-10 nmol/mouse
  dose range providing excellent TBR: 1-30 nmol per mouse
22Rv1 tumor xenografts; mouse, in vivo
  time for skin uptake to clear: 4 to 5 h
basophils; FIG. 47E, ≥2 considered positive response
  stimulated index: 1
basophils; average of 3 healthy subjects
  Percent of basophile activation, Avg: 2.8%
basophils; healthy subjects, OTL78 75 μM
  Percent of basophile activation, Subject 1: 2.64%
  Percent of basophile activation, Subject 2: 2.67%
  Percent of basophile activation, Subject 3: 3.14%
basophils; stimulation index, ≥2 considered positive response
  SI = Avg/background: 1.1
LNCaP tumor xenografts
  accumulation in LNCaP tumors: accumulated predominantly
[4]
  enhancement of the fluorescence of S0456: ≥ 2

— patent US11484607B2, “PSMA-targeted NIR dyes and their uses” (On Target Laboratories, LLC, priority 2015, dated 2022)
